Experimental data from paper PMC13252604, “First Generation Proteolysis Targeting Chimeras (PROTACs) for the Treatment of Progeria” (Advanced Science, 2026).

Tested on: HGADFN167 Lmna^G608G/G608G fibroblasts
Experiment: Cell cycle analysis by flow cytometry
Format: cell-based, human
Settings: HGADFN167, 5 µM, 20 days
Experimental: Supporting Figure S5. Cell cycle analysis histogram. Flow cytometry analysis of DNA content showing cell cycle distribution with peaks corresponding to G0/G1 (labeled as M1) and G2/M phases, and an intermediate region representing S phase (S/G2/M are labeled as M2). Human progeroid LmnaG608G/G608G fibroblasts (HGADFN167 cells, from The Progeria Research Foundation) were incubated with 5 μM of compound 2 for 20 days and analyzed for DNA content by flow cytometry in a FACSCalibur Flow cytometer (Becton Dickinson). Images shown correspond to one representative analysis and bar graph represents mean±sem of 2 independent experiments performed in duplicate.
*p<0.05 vs HGADFN167 cells, one-way ANOVA. […]
Cells were harvested by trypsin, centrifuged and washed with PBS. Cells pellets were added with 70% (vol/vol) ice-cold ethanol. […] The mixture was then allowed to incubate for 30min at 37 °C in the dark and samples were finally analysed by FACScalibur (Becton Dickinson) flow cytometer […]
Cells were incubated for 1 h in 1% OsO4 at room temperature and then thoroughly washed with milliQ water. […] The samples were analysed and examined in the transmission electron microscope JEM 1010 at 80 […]
Total RNA of HGPS fibroblasts (HGADFN167) and UCM-18142-treated HGPS fibroblasts were extracted for RNA sequencing. The RNA concentration and integrity were assessed using the Tape Station 4150 system (Agilent). […]

## CC1(C)Oc2cc3oc(=O)ccc3cc2C[C@@H]1OC(=O)CCCCCNc1cccc2c1C(=O)N(C1CCC(=O)NC1=O)C2=O (stereo partly shown) [compound 2]
  percentage of cells undergoing replication (phases S/G2/M): increase
